# According to ChEMBL document CHEMBL3045764, “Synthesis of Both Enantiomers of Altholactone, Isoaltholactone and 5-Hydroxygoniothalamin from Tri-O-acetyl-D-glucal, and Their Biological Activities” (J Pestic Sci, 2001):
# Columns and labels:
# Lactuca sativa = assay: Inhibition of Lactuca sativa (lettuce) seed germination assessed as elongation of root by measuring germination rate (reference value: 75%); assay type: functional
# [1] = Toxicity in Artemia salina (brine shrimp) assessed as death rate after 1.5 days (reference value: 5%); assay type: organism-based; details: in vivo, read-out: Activity
Compound,inhibition (INH) (Lactuca sativa),mortality at 36 h [1]
O=C1C=C[C@H]2O[C@H](c3ccccc3)[C@H](O)[C@@H]2O1,56%,31%
O=C1C=C[C@H]2O[C@H](c3ccccc3)[C@@H](O)[C@@H]2O1,63%,48%
O=C1C=C[C@@H]2O[C@H](c3ccccc3)[C@H](O)[C@@H]2O1 [(+)-ISOALTHOLACTONE],25%,13%
O=C1C=C[C@@H]2O[C@H](c3ccccc3)[C@@H](O)[C@@H]2O1 [ALTHOLACTONE],50%,40%
O=C1C=C[C@H]2O[C@@H](c3ccccc3)[C@H](O)[C@H]2O1 [ENT-ALTHOLACTONE],5%,31%
O=C1C=C[C@H]2O[C@H](c3ccccc3)[C@@H](O)[C@H]2O1 [ENT-ISOALTHOLACTONE],69%,8%
